Tests used:
Assay in all cases: Antibacterial activity of lactic acid cell culture products (plate culture, filter paper disk)
Type in all cases: cell-based
[1] = test system: V. nigripulchritudo TUMSAT-OK1 strain; conditions: Vibrio nigripulchritudo on Marine agar; disk with 20 μL culture filtrate (ampicillin 100 μg/mL); 25° C., 24 hours; read-out: diameter of the growth-inhibitory zone
Method: (§1) Examination was performed on whether the cell culture products of NITE BP-03199, NITE BP-03200, and NITE BP-03201 have antibacterial activity to Vibrio bacteria. The V. parahaemolyticus TUMSAT-D6 strain (AHPND strain), V. nigripulchritudo TUMSAT-OK1 strain, and V. pengeicida TUMSAT-OG1 strain were used as Vibrio bacteria.
(§2) With reference to FIG. 4, the experimental method will be described. With a bacteria spreader, 100 μL of a bacterial solution 11 of a Vibrio bacterium (approximately 10^8 cfu/mL) was smeared on agar medium 12. The agar medium used was Marine agar (Difco). A filter paper disk 15 was impregnated with 20 μL of a lactic acid bacterial culture filtrate 13, and placed on the agar medium with a Vibrio bacterium smeared thereon. The lactic acid bacterial culture filtrate (cell culture product) was a solution obtained through a process that any lactic acid bacterium of NITE BP-03199, NITE BP-03200, and NITE BP-03201 was cultured with MRS Broth at a temperature of 30° C. and the culture supernatant was filtered through a filter having a pore size of 0.22 μm. The turbidity of each lactic acid bacterial culture solution at a wavelength of 600 nm was approximately 10 OD. The agar medium with filter paper disk 15 placed thereon was subjected to culture at 25° C. for 24 hours, and the diameter (mm) of a growth-inhibitory zone 14 was measured. Each numerical value shown in Table 7 indicates the diameter (mm) of the growth-inhibitory zone. A filter paper disk was impregnated with medium for lactic acid bacteria (MRS Broth) as a negative control, and another one was impregnated with the antibiotic ampicillin (100 μg/mL) as a positive control.

[2] = test system: V. parahaemolyticus TUMSAT-D6 strain (AHPND strain); conditions: Vibrio parahaemolyticus on Marine agar; disk with 20 μL culture filtrate (ampicillin 100 μg/mL); 25° C., 24 hours; read-out: diameter of the growth-inhibitory zone
Method: as §1, §2

[3] = test system: V. pengeicida TUMSAT-OG1 strain; conditions: Vibrio penaeicida on Marine agar; disk with 20 μL culture filtrate (ampicillin 100 μg/mL); 25° C., 24 hours; read-out: diameter of the growth-inhibitory zone
Method: as §1, §2

For CC1(C)S[C@@H]2[C@H](NC(=O)[C@H](N)c3ccccc3)C(=O)N2[C@H]1C(=O)O [Ampicillin, ampicillin], the zone of inhibition at 100 µg/mL [1] was 29 mm, the zone of inhibition at 100 µg/mL [2] was 28 mm and the zone of inhibition at 100 µg/mL [3] was 37 mm.

— patent publication US20240335486A1, “COMPOSITION FOR REARING ORGANISM BELONGING TO ORDER DECAPODA AND COMPOSITION FOR PREVENTING OR TREATING INFECTION IN DECAPODS” (SUMITOMO CHEMICAL COMPANY, LIMITED, priority 2021, published 2024)
